Tests used:
Type in all cases: cell-based
Klebsiella = assay: Bacterial growth over time in urine samples with different antibiotics (FIG. 10); settings: urine samples containing Klebsiella; growth curve compared with control line
Method: As a first stage a biological sample containing urine is obtained. A spinning process is applied to the sample and the sample is aliquoted or otherwise divided into wells. The samples are then incubated in an incubator. After a pre-determined time, each sample, in a sample chamber, is moved into a detection configuration with the detection apparatus. This may involve placing the sample in a cuvette into the sample chamber. This may involve sequentially moving a plurality of sample chambers into the detection configuration. More than one measurement for each sample may be performed and stored to establish growth curves, for example, those shown in FIGS. 6, 7, 8 and 10.
FIG. 10 is a plot of bacterial growth as a function of time in urine samples in the presence of different types of antibiotics. The urine samples contain a significant amount of Klebsiella resistant to meropenem and susceptible to penicillin, amoxicillin, gentamicin and ciprofloxacin. The control line is the upper most line.
The second upper most line correspond to results for a urine sample treated with meropenem. The second upper most line overlaps in part with the control line. The urine sample is thus shown to be resistant to meropenem. The other lines correspond to results for urine samples treated with ciprofloxacin, gentamicin, penicillin and amoxicillin.

[1] = test system: bacterial growth of samples; assay: Detection apparatus, bacterial growth with antibiotics at EUCAST breakpoint, FIG. 8(a) / Table 1; parameters: key to S or R result (sensitive / resistant): S: sensitive; R: resistant; settings: Table 1, FIG. 8(a); antibiotic at EUCAST breakpoint concentration
Method: (§1) FIG. 8(a) and FIG. 8(b) are plots showing bacterial growth of samples as a function of time in the presence of different types of antibiotics. FIGS. 8(a) and 8(b) illustrate break points for different types of antibiotics. Measurements derived using the data shown in FIGS. 8(a) and 8(b) are shown in Table 1 and Table 2, respectively.
(§2) At a fourth step, a test process is performed that includes incubation and obtaining readings. Tests will typically run for a maximum of 30 minutes.
(§3) At a fifth step, an analysis process is performed based on the readings obtained from the test process. The analysis process includes determining if the strain is sensitive or resistant to the or an antibiotic or other agent in the sample chamber based on the obtained readings. Determining whether a sample is sensitive or resistant to an antibiotic or other agent may be referred to as obtaining an S result or an R result. Determining if a sample is a S result or an R result may include comparing a reading to threshold criteria.
(§4) As a first example, if the sample fails to show a 50% inhibition, the sample will be declared R after 30 minutes. In some embodiments, the analysis process includes providing sensitivity results.

[2] = test system: bacterial growth of samples; assay: Reference susceptibility test (Vitek 2), sample of FIG. 8(a) / Table 1; settings: Table 1, sample of FIG. 8(a)
From the text: as §1

[3] = test system: bacterial growth of samples; assay: Detection apparatus, bacterial growth with antibiotics at EUCAST breakpoint, FIG. 8(b) / Table 2; parameters: key to S or R result (sensitive / resistant): S: sensitive; R: resistant; settings: Table 2, FIG. 8(b); antibiotic at EUCAST breakpoint concentration
Method: as §1, §2, §3, §4

[4] = test system: bacterial growth of samples; assay: Reference susceptibility test (Vitek 2), sample of FIG. 8(b) / Table 2; settings: Table 2, sample of FIG. 8(b)
From the text: as §1

E. coli = assay: Bacterial growth over time by light scattering at different antibiotic concentrations (FIGS. 6 and 7); settings: from plot of detector output vs time
From the text: Any suitable detection and analysis system may be used with the embodiments of FIGS. 1 to 5. In some embodiments a detection and analysis system as described in WO 2016/128747 is used. The content of WO 2016/128747 is hereby incorporated by reference. In some embodiments a light source in the form of a 635 nm wavelength laser is used (any light in the wavelength range 620-750 nm is used in some other embodiments). The laser in this embodiment is connected to a signal generator that is adapted to control a modulation frequency and phase of the laser output. The photodetector is connected to a digital phase sensitive detector (PSD). An input of an amplifier is connected to the signal generator. An output of the amplifier is connected to a digital oscilloscope 66. […]
The signal generator is arranged to modulate the output frequency of the laser source. […] The detected signal is filtered by the PSD. The PSD filters the detected signal from the photodetector. The PSD synchronizes the detected signal with the modulation applied to the light source to provide a dampening system that eliminates unwanted noise, for example, background electrical or luminous noise. The filtered signal is sent to the digital oscilloscope to be recorded. […]

Row | Molecule | susceptibility of bacteria in urine sample (Klebsiella) | S or R result (sensitive / resistant) [1] | Time To Results [1] | Reference (Vitek 2 result) [2] | S or R result (sensitive / resistant) [3] | Time To Results [3] | Reference (Vitek 2 result) [4] | mode of action (E. coli) | minimum inhibitory concentration (MIC) (E. coli)
1 | CC1(C)S[C@@H]2[C@H](NC(=O)[C@H](N)c3ccc(O)cc3)C(=O)N2[C@H]1C(=O)O [Amoxicillin] | susceptible | (S) | 2.93 min | – | – | – | – | – | –
2 | CC1(C)S[C@@H]2[C@H](NC(=O)[C@H](N)c3ccccc3)C(=O)N2[C@H]1C(=O)O [Ampicillin] | – | – | – | 8 Mg/L | (R) | >30 min | >0.5 Mg/L | – | –
3 | O=C(O)c1cn(C2CC2)c2cc(N3CCNCC3)c(F)cc2c1=O [Ciprofloxacin] | susceptible | (S) | 4.4 min | ≤0.25 Mg/L | (S) | 3.37 min | 0.5 Mg/L | – | –
4 | CC[C@H]1OC(=O)[C@H](C)[C@@H](O[C@H]2C[C@@](C)(OC)[C@@H](O)[C@H](C)O2)[C@H](C)[C@@H](O[C@@H]2O[C@H](C)C[C@H](N(C)C)[C@H]2O)[C@](C)(O)C[C@@H](C)C(=O)[C@H](C)[C@@H](O)[C@]1(C)O [Erythromycin] | – | – | – | – | (S) | 3.3 min | 1 Mg/L | – | –
5 | C[C@@H](O)[C@H]1C(=O)N2C(C(=O)O)=C(S[C@@H]3CN[C@H](C(=O)N(C)C)C3)[C@H](C)[C@H]12 [Meropenem, meropenem] | resistant | (S) | 2.57 min | ≤0.25 Mg/L | (S) | 2.2 min | – | causes lysis and a reduction in scattering | –
6 | COc1c(N2C[C@@H]3CCCN[C@@H]3C2)c(F)cc2c(=O)c(C(=O)O)cn(C3CC3)c12 [Moxifloxacin] | – | – | – | ≤0.25 Mg/L | – | – | – | – | –
7 | O=C1CN(/N=C/c2ccc([N+](=O)[O-])o2)C(=O)N1 [Nitrofurantoin] | – | – | – | – | (S) | 3.37 min | 16 Mg/L | – | –
8 | COc1cc(Cc2cnc(N)nc2N)cc(OC)c1OC [Trimethoprim] | – | (S) | 0.73 min | ≤0.5 Mg/L | (S) | 7.33 min | 0.5-2 Mg/L | – | –
9 | CN[C@H](CC(C)C)C(=O)N[C@H]1C(=O)N[C@@H](CC(N)=O)C(=O)N[C@H]2C(=O)N[C@H]3C(=O)N[C@H](C(=O)N[C@H](C(=O)O)c4cc(O)cc(O)c4-c4cc3ccc4O)[C@H](O)c3ccc(c(Cl)c3)Oc3cc2cc(c3O[C@@H]2O[C@H](CO)[C@@H](O)[C@H](O)[C@H]2O[C@H]2C[C@](C)(N)[C@H](O)[C@H](C)O2)Oc2ccc(cc2Cl)[C@H]1O [Vancomycin] | – | – | – | – | (S) | 7.33 min | 1 Mg/L | – | –
10 | Augmentin (co-amox) | – | (S) | 2.2 min | 2 Mg/L | (R) | >30 min | ≤2 Mg/L | – | –
11 | gentamicin | susceptible | (S) | 0.73 min | ≤1 Mg/L | (S) | 0.37 min | 0.5-8 Mg/L | – | below 2 mg/L
12 | penicillin | susceptible | – | – | – | – | – | – | – | –

Source: patent publication US11609178B2, “Apparatus for analysing a liquid sample comprising particles” (UNIVERSITY COURT OF THE UNIVERSITY OF ST ANDREWS, priority 2018, dated 2023)
